{"source": "patent US20240318160A1", "about": "(Wisconsin Alumni Research Foundation, priority 2023, published 2024)", "type_in_all_cases": "biochemical", "key": {"[1]": {"system": "Joinvillea ascendens JaPAL (SEQ ID NO: 28) variant JaPAL^F140H_MUT8 (F140H plus PTAL-type residues at 102, 112, 121, 138, 267, 444, 448, 500)", "experiment": "TAL and PAL enzyme kinetics", "experimental": "(§1) To investigate the potential role of these residues in TAL activity, we generated two JaPAL mutant enzymes, one with PTAL-type substitutions in the 8 circle residues and the other with PTAL-type substitutions in both the circle and triangle residues (Table 4) in addition to the F140H mutation (JaPAL^F140H_MUT8 and JaPAL^F140H_MUT16, respectively).\n(§2) A mixture containing 100 mM Tris-HCl (pH 8.5), 1% glycerol, and purified enzyme in a total volume of 50 μl was preincubated for 3 min at 30° C. […] The reactions were terminated by addition of 6N acetic acid (10 μl).\n(§3) The kinetic parameters of the recombinant enzymes were determined using HPLC. Reaction mixtures containing 100 mM Tris-HCl (pH 8.5), 1% glycerol, and purified enzyme (0.15 μg for PAL assay and 1 μg for TAL assay) in a 50 μl total volume were preincubated for 3 min at 30° C. […] After 10 min and 20 min incubations for PAL and TAL assay, respectively, at 30° C., the reaction was terminated by addition of 6N acetic acid (10 μl). […] The products were quantified using calibration curves generated using authentic standards. Non-linear hyperbolic regression analyses were conducted using the Excel Solver tool to calculate Km and Vmax values."}, "[2]": {"system": "Joinvillea ascendens JaPAL (SEQ ID NO: 28) variant JaPAL^F140H_MUT16 (F140H plus PTAL-type residues at 70, 102, 110, 112, 121, 129, 135, 138, 267, 271, 279 …)", "experiment": "TAL and PAL enzyme kinetics", "settings": "PAL assay (L-Phe), pH 8.5, 30° C.", "experimental": "as §1, §2, §3"}, "[3]": {"system": "Streptochaeta angustifolia SaPTAL-b variant H126F (SaPTAL-b^H126F)", "experiment": "TAL and PAL enzyme kinetics", "settings": "PAL assay (L-Phe), pH 8.5, 30° C.", "experimental": "as §2, §3"}, "[4]": {"system": "Streptochaeta angustifolia SaPTAL-a, wild type", "experiment": "TAL and PAL enzyme kinetics", "settings": "PAL assay (L-Phe), pH 8.5, 30° C.", "experimental": "as §2, §3"}, "[5]": {"system": "Ecdeiocolea monostachya EmoPTAL variant H127F (EmoPTAL^H127F)", "experiment": "TAL and PAL enzyme kinetics", "settings": "PAL assay (L-Phe), pH 8.5, 30° C.", "experimental": "as §2, §3"}, "[6]": {"system": "Streptochaeta angustifolia SaPTAL-b, wild type", "experiment": "TAL and PAL enzyme kinetics", "settings": "PAL assay (L-Phe), pH 8.5, 30° C.", "experimental": "as §2, §3"}, "[7]": {"system": "Joinvillea ascendens JaPTAL (SEQ ID NO: 27) variant H125F/I97S (JaPTAL^H125F_I97S)", "experiment": "TAL and PAL enzyme kinetics", "settings": "PAL assay (L-Phe), pH 8.5, 30° C.", "experimental": "as §2, §3"}, "[8]": {"system": "Sorghum bicolor SbPAL, wild type", "experiment": "TAL and PAL enzyme kinetics", "settings": "PAL assay (L-Phe), pH 8.5, 30° C.", "experimental": "as §2, §3"}, "[9]": {"system": "Ecdeiocolea monostachya EmoPAL, wild type", "experiment": "TAL and PAL enzyme kinetics", "settings": "PAL assay (L-Phe), pH 8.5, 30° C.", "experimental": "as §2, §3"}, "[10]": {"system": "Ecdeiocolea monostachya EmoPTAL, wild type", "experiment": "TAL and PAL enzyme kinetics", "settings": "PAL assay (L-Phe), pH 8.5, 30° C.", "experimental": "as §2, §3"}, "[11]": {"system": "Joinvillea ascendens JaPAL variant F140H (JaPAL^F140H), SEQ ID NO: 259", "experiment": "TAL and PAL enzyme kinetics", "settings": "PAL assay (L-Phe), pH 8.5, 30° C.", "experimental": "as §2, §3"}, "[12]": {"system": "Joinvillea ascendens JaPTAL, wild type, SEQ ID NO: 27", "experiment": "TAL and PAL enzyme kinetics", "settings": "PAL assay (L-Phe), pH 8.5, 30° C.", "experimental": "as §2, §3"}, "[13]": {"system": "Joinvillea ascendens JaPTAL (SEQ ID NO: 27) variant H125F (JaPTAL^H125F)", "experiment": "TAL and PAL enzyme kinetics", "settings": "PAL assay (L-Phe), pH 8.5, 30° C.", "experimental": "as §2, §3"}, "[14]": {"system": "Joinvillea ascendens JaPAL, wild type, SEQ ID NO: 28", "experiment": "TAL and PAL enzyme kinetics", "settings": "PAL assay (L-Phe), pH 8.5, 30° C.", "experimental": "as §2, §3"}, "[15]": {"system": "Sorghum bicolor SbPAL variant F135H (SbPAL^F135H)", "experiment": "TAL and PAL enzyme kinetics", "settings": "PAL assay (L-Phe), pH 8.5, 30° C.", "experimental": "as §2, §3"}, "[16]": {"system": "Streptochaeta angustifolia SaPTAL-a variant H118F (SaPTAL-a^H118F)", "experiment": "TAL and PAL enzyme kinetics", "settings": "PAL assay (L-Phe), pH 8.5, 30° C.", "experimental": "as §2, §3"}, "[17]": {"system": "Ecdeiocolea monostachya EmoPAL variant F134H (EmoPAL^F134H)", "experiment": "TAL and PAL enzyme kinetics", "settings": "PAL assay (L-Phe), pH 8.5, 30° C.", "experimental": "as §2, §3"}, "[18]": {"system": "PAL^F140H mutants (JaPAL^F140H, EmoPAL^F134H, BdPAL^F137H, SbPAL^F135H)", "experiment": "TAL and PAL enzyme kinetics, group of enzymes", "settings": "PAL activity, on average", "experimental": "as §3"}, "grass PTAL enzymes": {"system": "grass PTAL enzymes", "experiment": "TAL and PAL enzyme kinetics, group of enzymes", "settings": "PAL activity (L-Phe), range over grass PTAL enzymes", "experimental": "as §3"}, "[19]": {"settings": "PAL assay (L-Phe), pH 8.5, 30° C."}}, "note": "“And” between values parts separate entries of the source, which are not always exact repeats. Equal values may be shown once.", "data": [{"compound": "N[C@@H](Cc1ccccc1)C(=O)O", "note": "[L-Phe, phenylalanine]", "values": [{"measurement": "Km for Phe relative to wild-type JaPTAL", "setting": "[1]; PAL activity, higher than JaPTAL", "result": 2, "unit": "fold"}, {"measurement": "Km", "setting": "[1]; [19]", "result": "141 ± 6.3", "unit": "µM"}, {"measurement": "kcat", "setting": "[1]; [19]", "result": "0.60 ± 0.01", "unit": "s⁻¹"}, {"measurement": "kcat/Km", "setting": "[1]; [19]", "result": "4250 ± 220", "unit": "M⁻¹ s⁻¹"}, {"measurement": "Km", "setting": "[2]", "result": "455 ± 4.6", "unit": "µM"}, {"measurement": "kcat", "setting": "[2]", "result": "0.46 ± 0.01", "unit": "s⁻¹"}, {"measurement": "kcat/Km", "setting": "[2]", "result": "1010 ± 0", "unit": "M⁻¹ s⁻¹"}, {"measurement": "Km", "setting": "[3]", "result": "6.3 ± 0.5", "unit": "µM"}, {"measurement": "kcat/Km", "setting": "[3]", "result": "37050 ± 2120", "unit": "M⁻¹ s⁻¹"}, {"measurement": "Km", "setting": "[4]", "result": "154 ± 3.7", "unit": "µM"}, {"measurement": "kcat", "setting": "[4]", "result": "0.39 ± 0.01", "unit": "s⁻¹"}, {"measurement": "kcat/Km", "setting": "[4]", "result": "2510 ± 30", "unit": "M⁻¹ s⁻¹"}, {"measurement": "Km", "setting": "[5]", "result": "3.6 ± 0.5", "unit": "µM"}, {"measurement": "kcat", "setting": "[5]", "result": "0.12 ± 0.00", "unit": "s⁻¹"}, {"measurement": "kcat/Km", "setting": "[5]", "result": "32620 ± 2120", "unit": "M⁻¹ s⁻¹"}, {"measurement": "Km", "setting": "[6]", "result": "227.4 ± 1.5", "unit": "µM"}, {"measurement": "kcat", "setting": "[6]", "result": "0.56 ± 0.02", "unit": "s⁻¹"}, {"measurement": "kcat/Km", "setting": "[6]", "result": "2460 ± 100", "unit": "M⁻¹ s⁻¹"}, {"measurement": "Km", "setting": "[7]", "result": "9.42 ± 0.8", "unit": "µM"}, {"measurement": "kcat", "setting": "[7]", "result": "0.02 ± 0.00", "unit": "s⁻¹"}, {"measurement": "kcat/Km", "setting": "[7]", "result": "1660 ± 120", "unit": "M⁻¹ s⁻¹"}, {"measurement": "Km", "setting": "[8]", "result": "43.9 ± 2.7", "unit": "µM"}, {"measurement": "kcat", "setting": "[8]", "result": "0.97 ± 0.02", "unit": "s⁻¹"}, {"measurement": "kcat/Km", "setting": "[8]", "result": "22050 ± 1080", "unit": "M⁻¹ s⁻¹"}, {"measurement": "Km", "setting": "[9]", "result": "27.7 ± 1.9", "unit": "µM"}, {"measurement": "kcat", "setting": "[9]", "result": "1.23 ± 0.02", "unit": "s⁻¹"}, {"measurement": "kcat/Km", "setting": "[9]", "result": "44700 ± 2390", "unit": "M⁻¹ s⁻¹"}, {"measurement": "Km", "setting": "[10]", "result": "64.1 ± 3.1", "unit": "µM"}, {"measurement": "kcat", "setting": "[10]", "result": "0.48 ± 0.00", "unit": "s⁻¹"}, {"measurement": "kcat/Km", "setting": "[10]", "result": "7540 ± 390", "unit": "M⁻¹ s⁻¹"}, {"measurement": "Km", "setting": "[11]", "result": "697 ± 169", "unit": "µM"}, {"measurement": "kcat", "setting": "[11]", "result": "0.60 ± 0.04", "unit": "s⁻¹"}, {"measurement": "kcat/Km", "setting": "[11]", "result": "890 ± 180", "unit": "M⁻¹ s⁻¹"}, {"measurement": "Km", "setting": "[12]", "result": "66 µM and 65.6 µM"}, {"measurement": "kcat", "setting": "[12]", "result": "0.5 s⁻¹ and 0.45 ± 0.02 s⁻¹"}, {"measurement": "kcat/Km", "setting": "[12]", "result": "6800 ± 180", "unit": "M⁻¹ s⁻¹"}, {"measurement": "Km", "setting": "[13]", "result": "6.8 ± 0.7", "unit": "µM"}, {"measurement": "kcat", "setting": "[13]", "result": "0.08 ± 0.00", "unit": "s⁻¹"}, {"measurement": "kcat/Km", "setting": "[13]", "result": "12280 ± 710", "unit": "M⁻¹ s⁻¹"}, {"measurement": "Km", "setting": "[14]", "result": "24 µM and 24.4 µM"}, {"measurement": "kcat", "setting": "[14]", "result": "1.9 s⁻¹ and 1.92 ± 0.01 s⁻¹"}, {"measurement": "kcat/Km", "setting": "[14]", "result": "78600 ± 0", "unit": "M⁻¹ s⁻¹"}, {"measurement": "Km", "setting": "[15]", "result": "1050 ± 58.5", "unit": "µM"}, {"measurement": "kcat", "setting": "[15]", "result": "0.88 ± 0.05", "unit": "s⁻¹"}, {"measurement": "kcat/Km", "setting": "[15]", "result": "840 ± 20", "unit": "M⁻¹ s⁻¹"}, {"measurement": "Km", "setting": "[16]", "result": "6 ± 0.8", "unit": "µM"}, {"measurement": "kcat", "setting": "[16]", "result": "0.20 ± 0.00", "unit": "s⁻¹"}, {"measurement": "kcat/Km", "setting": "[16]", "result": "33600 ± 5100", "unit": "M⁻¹ s⁻¹"}, {"measurement": "Km", "setting": "[17]", "result": "1310 ± 25.6", "unit": "µM"}, {"measurement": "kcat", "setting": "[17]", "result": "0.42 ± 0.01", "unit": "s⁻¹"}, {"measurement": "kcat/Km", "setting": "[17]", "result": "320 ± 10", "unit": "M⁻¹ s⁻¹"}, {"measurement": "Km toward Phe relative to corresponding wild-type enzymes", "setting": "[18]", "result": 35, "unit": "fold"}, {"measurement": "Km", "setting": "grass PTAL enzymes", "result": "150 to 227", "unit": "µM"}]}]}
